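Test compounds were applied to cells in 96-well plates for 48 hours at 5 doses. GI50 = concentration required for 50% inhibition of growth. TGI: concentration producing complete growth inhibition.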
How the values were obtained:
Test in all cases: DTP human tumour cell line panel, 48 h
[1] = tested on: SF-295 CNS
[2] = tested on: SF-268 CNS
[3] = tested on: HOP-92 NSCLC
[4] = tested on: RPMI-8226 leukemia
[5] = tested on: NCI-H23 lung
[6] = tested on: SNB-75 CNS
[7] = tested on: HL-60(TB) leukemia
[8] = tested on: SK-MEL-5 melanoma
[9] = tested on: HOP-62 NSCLC
[10] = tested on: SR leukemia

Structure (SMILES) | TGI [1] | TGI [2] | TGI [3] | TGI [4] | TGI [5] | TGI [6] | TGI [7] | TGI [8] | TGI [9] | TGI [10] | GI50 [1] | GI50 [9] | GI50 [2] | GI50 [3] | GI50 [4] | GI50 [5] | GI50 [6] | GI50 [7] | GI50 [8] | GI50 [10]
CC1c2[nH]c3ccccc3c2CCN1O (stereo unspecified) | > 100 µM | > 100 µM | > 100 µM | > 100 µM | > 100 µM | > 100 µM | > 100 µM | > 100 µM |  |  |  |  |  |  |  |  |  |  |  | 
NC(=O)c1ccc(Cl)c([N+](=O)[O-])c1 | > 100 µM | > 100 µM | > 100 µM |  | > 100 µM | > 100 µM | > 100 µM | > 100 µM | > 100 µM |  |  |  |  |  |  |  |  |  |  | 
NC(Cc1ccccc1)c1nccs1 (stereo unspecified) | > 100 µM | > 100 µM | > 100 µM | > 100 µM | > 100 µM | > 100 µM |  | > 100 µM | > 100 µM | > 100 µM |  |  |  |  |  |  |  |  |  | 
COc1cc2c3c(n(CCCNCCCN)c(=O)c2cc1OC)-c1cc2c(cc1C3=O)OCO2 | 16.7 µM | 10.5 µM | 11.2 µM | 11.8 µM | > 100 µM | 36.7 µM | 5.28 µM | 19 µM | 13 µM |  | 3.69 µM | 1.6 µM | 1980 nM | 1360 nM | 2.44 µM | > 100 µM | 4.48 µM | 1.46 µM | 5.35 µM | 
CO[C@@]1(c2ccccc2)O[C@H]2OCCC2[C@H]1c1ccc(Cl)cc1 (stereo partly specified) | 59.7 µM | > 100 µM |  | > 100 µM | 81.6 µM | > 100 µM |  | 33.1 µM | > 100 µM | > 100 µM |  |  |  |  |  |  |  |  |  | 
COc1ccc(OC(C)C(=O)O)c2c(=O)ccccc12 (stereo unspecified) | > 100 µM | > 100 µM |  | > 100 µM | > 100 µM | > 100 µM | > 100 µM | > 100 µM | > 100 µM | > 100 µM |  |  |  |  |  |  |  |  |  | 
O=C1NC2C(O)CCCCC2C12CCCCC2 (stereo unspecified) | > 100 µM | > 100 µM | > 100 µM | > 100 µM | > 100 µM | > 100 µM | > 100 µM | > 100 µM | > 100 µM |  |  |  |  |  |  |  |  |  |  | 
CC(=O)NN1C(=O)C(Cc2ccccc2)c2ccccc21 (stereo unspecified) | > 100 µM | > 100 µM | > 100 µM | > 100 µM | > 100 µM | > 100 µM |  | > 100 µM | > 100 µM |  |  |  |  |  |  |  |  |  |  | 
C=C1C(=O)O[C@H]2C[C@@H]1C(=O)CC(C)CCCC(C)=CCC[C@@]2(C)O (stereo partly specified) | > 25 µM | > 25 µM | > 25 µM | > 25 µM | > 25 µM |  | > 25 µM | > 25 µM | > 25 µM | > 25 µM |  |  |  |  |  |  |  |  |  | 
CO/N=C(\COc1ccc2oc(-c3ccccc3)cc(=O)c2c1)c1ccc(F)cc1 | > 100 µM |  |  | > 100 µM | 64.7 µM | 40.6 µM | > 100 µM | 93.5 µM | 35.2 µM | > 100 µM | > 100 µM | 18.6 µM |  |  | 24.6 µM | 23.1 µM | 17.4 µM | 27.3 µM | 31.3 µM | 15.7 µM
COC(=O)C1CCc2nnc(-c3ccccc3)n21 (stereo unspecified) | > 100 µM | > 100 µM | > 100 µM | > 100 µM | > 100 µM | > 100 µM | > 100 µM | > 100 µM | > 100 µM |  |  |  |  |  |  |  |  |  |  | 

From PubChem BioAssay (NCI)
